Measured values published in US20230255953A1, “USE OF ROLUPERIDONE IN PREVENTING RELAPSE IN SCHIZOPHRENIA PATIENTS” (Minerva Neurosciences, Inc., priority 2022, published 2023).

Experiments:
[1] = system: patients with negative symptoms of schizophrenia; assay: Study #2 (MIN-101C07): Total Verbal Fluency; type: in vivo, human; conditions: Week 12 DB, ITT
From the text: Study #2 (also referred to as “MIN101C07”) was a Phase 3, randomized, DB, placebo-controlled, parallel-group 12-week study to evaluate the efficacy and safety of Roluperidone in patients ≥18 years to ≤55 years with negative symptoms of schizophrenia, followed by a 40-week OL extension. The study consisted of a pretreatment screening period of up to 28 days (including an antipsychotic medication washout period), a 12-week, DB, placebo-controlled period, and a 40-week OL period. Eligible patients (with moderate to severe negative symptoms of schizophrenia and stable positive symptoms but without severe symptoms of suspiciousness, agitation, hostility, uncooperativeness, or poor impulse control) were randomized 1:1:1 to receive Roluperidone 32 mg QD, Roluperidone 64 mg QD (GR01/B formulation, see U.S. Pat. No. 11,464,744), or placebo, orally, for 12 weeks. […] During the 40-week OL treatment extension, patients who were initially randomized to Roluperidone 32 mg or 64 mg continued treatment with the same dose, while patients who were initially randomized to placebo crossed over to Roluperidone 32 mg or 64 mg in a 1:1 ratio.

[2] = system: patients with negative symptoms of schizophrenia; assay: Integrated analysis (pooled ITT): rate of relapse and time to relapse; type: in vivo, human
Protocol: “Time to relapse” in the DB period is defined as the number of days from Day 1 to the date of early trial termination due to relapse. […] Treatment differences in time to relapse in the DB period were analyzed using a Cox-regression model with treatment group and Baseline PANSS total score as covariates. For the analysis of the OL period, this analysis was repeated to analyze treatment differences in time to relapse in the study. For the OL period analysis, patients who were not observed to relapse in the study were censored on the date on which they ended the study. Kaplan-Meier plots of time to relapse in the DB period, OL period, and in the study were generated.
In some embodiments, for any of the methods disclosed herein, a relapse refers to a patient who is terminated early during treatment (or a study trial) due to worsening of psychosis or an adverse event or generalized symptom in Table 1.
(§1) The Efficacy data from Study Nos. 1 and 2 were pooled. The majority of patients in the pooled ITT population completed the DB period (502 patients overall, 66.3%), with similar rates in each treatment group (placebo: 69.8%, 32 mg Roluperidone: 65.3%, and 64 mg Roluperidone: 63.8%) (Table 12). The majority (62.7%) of those who completed the DB period entered the OL period. The most common reason for discontinuation during the DB period among patients overall was withdrawal of consent (15.6%), followed by adverse events (7.3%) and lack of efficacy (5.4%) (Table 12). […] Approximately twice as many patients in the Roluperidone groups (32 mg: 8.5%; 64 mg: 9.1%) discontinued due to adverse events compared with patients in the placebo group (4.3%). More patients in the placebo group discontinued due to lack of efficacy (6.7%) than in the Roluperidone groups (32 mg: 4.4%; 64 mg: 5.1%). The low number of patients who discontinued due to lack of efficacy or withdrawal of consent probably reflects a low level of worsening of positive symptoms.

[3] = system: patients with negative symptoms of schizophrenia; assay: Integrated analysis (pooled ITT): patient disposition, reasons for withdrawal; type: in vivo, human; conditions: for Withdrawn from double-blind period: Adverse event, % / Withdrawn from double-blind period: Death, % / Withdrawn from double-blind period: Lack of efficacy, %: DB
Protocol: as §1
A similar proportion of patients in each OL treatment group entered the OL period from the DB period (range: 61.3% to 65.6%) (Table 13). The most common reason for discontinuation in the OL period among patients was withdrawal of consent (93 patients, 12.3%), followed by adverse event (45 patients, 5.9%) and lack of efficacy (16 patients, 2.1%).

sigma2 = sigma2 (Homo sapiens, UniProt Q5BJF2); conditions: background statement; cited from earlier work
Chain of sigma2 (Q5BJF2 whole entry): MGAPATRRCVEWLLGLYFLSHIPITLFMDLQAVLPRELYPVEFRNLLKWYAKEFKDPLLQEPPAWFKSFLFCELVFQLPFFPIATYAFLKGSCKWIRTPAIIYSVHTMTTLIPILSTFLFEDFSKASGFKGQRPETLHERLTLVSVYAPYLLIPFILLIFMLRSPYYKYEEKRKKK

muscarinic receptors = conditions: background statement; cited from earlier work
[4] = Roluperidone Total (N = 502), DB period
[5] = Placebo in DB to 32 mg in OL (N = 128)
[6] = Placebo in DB to 64 mg in OL (N = 127)
[7] = Placebo in DB to Roluperidone in OL, Total (N = 255)
[8] = Roluperidone at Any Time 32 mg (N = 376)
[9] = Roluperidone at Any Time 64 mg (N = 381)

Substance: 1H-Isoindol-1-one,2-[ [1-[2-(4-fluorophenyl)-2-oxoethyl]-4-piperidinyl]methyl]-2,3-dihydro-, hydrochloride, hydrate (1:1:2) [Roluperidone]
- Change from Baseline LS Mean: Total Verbal Fluency (sum of 3 trials) ([1]; 32 mg QD): 3.9
- Effect Size (Cohen's d) vs Placebo: Total Verbal Fluency ([1]; 32 mg QD): 0.21
- Change from Baseline LS Mean: Total Verbal Fluency (sum of 3 trials) ([1]; 64 mg QD): 1.7
- Effect Size (Cohen's d) vs Placebo: Total Verbal Fluency ([1]; 64 mg QD): −0.10
- Patients who experienced relapse (%) ([2]; 32 mg (N = 248), DB period): 8%
- Patients who experienced relapse (number) ([2]; 32 mg (N = 248), DB period): 19
- Mean number of days to relapse ([2]; 32 mg group, OL period): 234.8 days
- Patients who experienced relapse (%) ([2]; 32 mg throughout, OL period): 7%
- Patients who experienced relapse (number) ([2]; 32 mg throughout, OL period): 10
- Days to relapse (Kaplan-Meier estimates), Mean ([2]; 32 mg, DB period): 128.3 days
- Days to relapse (Kaplan-Meier estimates), Median ([2]; 32 mg, DB period): 137.0 days
- Patients who experienced relapse (%) ([2]; 64 mg (N = 254), DB period): 6%
- Patients who experienced relapse (number) ([2]; 64 mg (N = 254), DB period): 16
- Mean number of days to relapse ([2]; 64 mg group, OL period): 188.1 days
- Patients who experienced relapse (%) ([2]; 64 mg throughout, OL period): 8%
- Patients who experienced relapse (number) ([2]; 64 mg throughout, OL period): 12
- Days to relapse (Kaplan-Meier estimates), Mean ([2]; 64 mg, DB period): 81.4 days
- Patients who experienced relapse (%) [2, 4]: 7%
- Patients who experienced relapse (number) [2, 4]: 35
- Days to relapse (Kaplan-Meier estimates), Mean ([2]; Roluperidone Total, DB period): 128.9 days
- Days to relapse (Kaplan-Meier estimates), Median ([2]; Roluperidone Total, DB period): 137.0 days
- Patients who experienced relapse (%) ([2]; placebo to 32 mg, OL period): 11%
- Patients who experienced relapse (number) ([2]; placebo to 32 mg, OL period): 9
- Patients who experienced relapse (%) ([2]; placebo to 64 mg, OL period): 1%
- Patients who experienced relapse (number) ([2]; placebo to 64 mg, OL period): 1
- Mean number of days to relapse ([2]; total placebo to Roluperidone group, OL period): 256.3 days
- Withdrawn from double-blind period: Adverse event, % ([3]; 32 mg (N = 248)): 8.5%
- Withdrawn from double-blind period: Death, % ([3]; 32 mg (N = 248)): 0.4%
- Withdrawn from double-blind period: Lack of efficacy, % ([3]; 32 mg (N = 248)): 4.4%
- Withdrawn from double-blind period: Adverse event, % ([3]; 64 mg (N = 254)): 9.1%
- Withdrawn from double-blind period: Lack of efficacy, % ([3]; 64 mg (N = 254)): 5.1%
- Withdrawn from OL period: Adverse event, % [3, 5]: (6.3) %
- Withdrawn from OL period: Lack of efficacy, % [3, 5]: (3.1) %
- Withdrawn from OL period: Adverse event, % [3, 6]: (3.9) %
- Withdrawn from OL period: Lack of efficacy, % [3, 6]: (1.6) %
- Withdrawn from OL period: Adverse event, % [3, 7]: (5.1) %
- Withdrawn from OL period: Lack of efficacy, % [3, 7]: (2.4) %
- Withdrawn from double-blind period: Adverse event, % ([3]; Roluperidone Total (N = 502)): 8.8%
- Withdrawn from double-blind period: Death, % ([3]; Roluperidone Total (N = 502)): 0.2%
- Withdrawn from double-blind period: Lack of efficacy, % ([3]; Roluperidone Total (N = 502)): 4.8%
- Withdrawn from OL period: Adverse event, % [3, 8]: (5.6) %
- Withdrawn from OL period: Lack of efficacy, % [3, 8]: (2.1) %
- Withdrawn from OL period: Adverse event, % [3, 9]: (6.3) %
- Withdrawn from OL period: Lack of efficacy, % [3, 9]: (2.1) %
- Antagonistic activity (sigma2): antagonistic activities
- Affinity (muscarinic receptors): very low or no affinity
